Data as given in patent publication US9834564B2, “Substituted quinolines as PDE-10 inhibitors” (priority 2010, dated 2017).

molecular target: recombinant human PDE-10 enzyme (PDE-10A) (Homo sapiens (Human), UniProt Q9Y233); assay: IMAP PDE Fluorescence Polarization assay, human PDE-10 inhibition (enzyme assay); type: biochemical; details: not given
Description: In one embodiment, the compounds provided herein were assayed for their ability to inhibit human PDE-10A. In one embodiment, the activities of the compounds were determined using the Molecular Devices IMAP PDE Fluorescence Polarization assay using recombinant human PDE-10 enzyme expressed in a baculoviral system. Briefly, 10 μL of a compound (0.2 nM-20 μM) was added to either a 96-well half area black plate or a 384-well black plate along with 10 μL of Fluorescein-labeled cAMP/cGMP substrate as per manufacturer's instructions and 10 μL of PDE enzyme (activity 0.1 U). Following a 40-minute incubation at 37° C., 60 μL of IMAP binding reagent was added. […] The data was analyzed using Prism Software (GraphPad Inc, San Diego, Calif.).

recombinant human PDE-10 enzyme (PDE-10A), sequence (Q9Y233 whole entry): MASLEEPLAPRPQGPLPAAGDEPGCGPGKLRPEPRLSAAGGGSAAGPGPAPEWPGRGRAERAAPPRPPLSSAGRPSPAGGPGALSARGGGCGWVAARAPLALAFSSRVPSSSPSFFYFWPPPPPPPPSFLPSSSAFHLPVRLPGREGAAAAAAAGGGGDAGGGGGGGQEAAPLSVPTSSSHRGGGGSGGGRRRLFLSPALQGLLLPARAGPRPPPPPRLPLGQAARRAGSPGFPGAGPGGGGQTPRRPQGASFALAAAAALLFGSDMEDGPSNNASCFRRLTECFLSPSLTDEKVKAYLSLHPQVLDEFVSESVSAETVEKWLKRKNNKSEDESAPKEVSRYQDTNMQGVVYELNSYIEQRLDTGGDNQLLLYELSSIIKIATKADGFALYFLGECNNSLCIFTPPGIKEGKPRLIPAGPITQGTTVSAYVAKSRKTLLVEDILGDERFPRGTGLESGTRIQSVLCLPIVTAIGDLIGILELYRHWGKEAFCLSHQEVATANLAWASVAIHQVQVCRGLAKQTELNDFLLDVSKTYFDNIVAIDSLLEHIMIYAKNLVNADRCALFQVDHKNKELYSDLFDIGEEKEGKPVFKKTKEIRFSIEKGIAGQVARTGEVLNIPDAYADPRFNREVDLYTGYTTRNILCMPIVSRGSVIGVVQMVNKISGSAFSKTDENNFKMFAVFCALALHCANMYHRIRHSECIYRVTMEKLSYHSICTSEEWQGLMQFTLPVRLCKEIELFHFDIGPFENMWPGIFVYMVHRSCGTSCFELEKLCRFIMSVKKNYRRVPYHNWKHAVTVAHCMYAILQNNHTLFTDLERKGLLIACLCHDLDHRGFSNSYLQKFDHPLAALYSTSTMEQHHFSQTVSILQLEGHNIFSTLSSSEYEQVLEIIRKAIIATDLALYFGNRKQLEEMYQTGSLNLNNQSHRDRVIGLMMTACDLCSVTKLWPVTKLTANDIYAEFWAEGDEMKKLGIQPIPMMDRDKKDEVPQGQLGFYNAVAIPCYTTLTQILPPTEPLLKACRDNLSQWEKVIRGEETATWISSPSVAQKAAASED

Compound | IC50
Cn1c(/C=C/c2nc(-c3ccccc3)c[nH]2)nc2ccccc2c1=O [Compound 9] | > 10000 nM

same assay, conditions: recombinant human PDE-10, fluorescein-labeled cAMP/cGMP substrate, 40 min at 37° C.

Compound | IC50
c1ccc(-c2csc(CCc3cnc4ccccc4n3)n2)cc1 [Compound 108] | < 500 nM
Cn1c(/C=C/c2nc3ccccc3c(=O)[nH]2)nc2ccccc21 [Compound 23] | 1000 to 10000 nM
c1ccc2nc(CCc3cnc4ccccc4n3)cnc2c1 [Compound 118] | 1000 to 10000 nM
Cn1c(CCc2cnc3ccccc3n2)nc2ccc3ncccc3c21 [Compound 83] | 1000 to 10000 nM
Oc1cccc2nc(CCc3cnc4ccccc4n3)[nH]c12 [Compound 99] | 500 to 1000 nM
Cc1cnc(C)c(CCc2nc3c4cccnc4ccc3n2C)n1 [Compound 205] | < 500 nM
O=c1[nH]c(CCc2cc(-c3ccccc3)n[nH]2)nc2ccccc12 [Compound 14] | 1000 to 10000 nM
Cn1c(CCc2ccc3ccccc3n2)nc2ccccc21 [Compound 25] | 1000 to 10000 nM
Cn1c(CCc2cnc3cccc(Cl)c3n2)nc2c3cccnc3ccc21 [Compound 191] | < 500 nM
c1cnc2ccc(CCc3nc4c5cccnc5ccn4n3)nc2c1 [Compound 176] | < 500 nM
Cc1cnc2nc(CCc3nc4c5cccnc5ccn4n3)ccc2c1 [Compound 180] | < 500 nM
c1ccc2nc(CCc3nc(-c4ccncc4)c[nH]3)ccc2c1 [Compound 68] | 1000 to 10000 nM
c1ccc(-c2nc(CCc3cnc4ccccc4n3)n3c2CCCC3)cc1 [Compound 114] | < 500 nM
FC(F)(F)c1ccc2[nH]c(CCc3cnc4ccccc4n3)nc2c1 [Compound 104] | 1000 to 10000 nM
c1ccc2nc(CCc3nc4cc5c(cc4[nH]3)OCO5)cnc2c1 [Compound 98] | 1000 to 10000 nM
c1ccc2nc(CCc3nc4c(ccc5ncccc54)[nH]3)ccc2c1 [Compound 86] | < 500 nM
COc1cccc2ccc(CCc3nc4c5cccnc5ccc4n3C)nc12 [Compound 161] | < 500 nM
Cn1c(CCc2cnc3ccccc3n2)nc2ccccc21 [Compound 26] | 1000 to 10000 nM
O=c1[nH]c(CCc2nc(-c3cccc4ccccc34)c[nH]2)nc2ccccc12 [Compound 55] | 1000 to 10000 nM
COc1cc2nc(CCc3cnc4ccccc4n3)[nH]c2cc1OC [Compound 96] | 1000 to 10000 nM
Cc1ncc(C)n2nc(CCc3nc4ccccc4cc3F)nc12 [Compound 127] | < 500 nM
Cn1c(CCc2ccc3cnccc3n2)nc2c3ncccc3ccc21 [Compound 163] | < 500 nM
Cc1ccc(C)c2nc(CCc3nc4ccc5ncccc5c4n3C)cnc12 [Compound 89] | < 500 nM

Compound | IC50
Cc1ccc(C)c2nc(CCc3nc4c(ccc5ncccc54)[nH]3)cnc12 [Compound 87] | < 500 nM
Cc1ncc(C)n2nc(CCc3ccc4ccc(Cl)c(Cl)c4n3)nc12 [Compound 132] | 500 to 1000 nM
Cc1ccc(C)c2nc(CCc3nc4c5cccnc5ccc4n3C)cnc12 [Compound 88] | < 500 nM
Cc1ccc2ccc(CCc3nc4c(C)ncc(C)n4n3)nc2c1C [Compound 128] | < 500 nM
Cc1ccc2ncc(CCc3nc4c(C)ncc(C)n4n3)nc2c1C [Compound 135] | < 500 nM
COc1cc2nc(CCc3nc(-c4ccccc4)c[nH]3)[nH]c(=O)c2cc1OC [Compound 7] | > 10000 nM
c1ccc(-c2c[nH]c(CCc3cccs3)n2)cc1 [Compound 29] | > 10000 nM
c1ccc2nc(CCc3ccc4ccc5cccnc5c4n3)ccc2c1 [Compound 159] | < 500 nM
c1cnc2nc(CCc3cn4ccc5ncccc5c4n3)ccc2c1 [Compound 195] | 1000 to 10000 nM
Cn1cc(-c2ccccc2)nc1CCc1ncc2ccccc2n1 [Compound 18] | < 500 nM
Cn1cc(-c2ccccc2)nc1CCc1cccc(C(N)=O)n1 [Compound 151] | > 10000 nM
Cc1ncc(C)n2nc(CCc3ccc4cccnc4n3)nc12 [Compound 138] | < 500 nM
Cc1ccc2ccc(CCc3cn4ccc5ncccc5c4n3)nc2n1 [Compound 196] | 500 to 1000 nM
Cc1c(CCc2cnc3ccccc3n2)nc2c3cccnc3ccn12 [Compound 190] | < 500 nM
c1cnc2ccc(CCc3cn4ccc5ncccc5c4n3)nc2c1 [Compound 199] | < 500 nM
O=c1[nH]c(CCc2nc(-c3ccc(Cl)cc3)c[nH]2)nc2ccccc12 [Compound 54] | 1000 to 10000 nM
Cn1c(CCc2cnc3ccccc3n2)nc2c3cccnc3ccc21 [Compound 84] | < 500 nM
c1ccc(-c2c[nH]c(CNc3cnc4ccccc4n3)n2)cc1 [Compound 121] | 1000 to 10000 nM
Fc1cc2[nH]c(CCc3cnc4ccccc4n3)nc2cc1Cl [Compound 101] | 500 to 1000 nM
c1ccc2nc(CCc3cn4ccc5ncccc5c4n3)cnc2c1 [Compound 189] | < 500 nM
Cn1c(CCc2cnc3ccccc3n2)nc2c3c(ccc21)NCCC3 [Compound 192] | < 500 nM
Cc1ncc(C)c2nc(CCc3nc4c5cccnc5ccc4n3C)ccc12 [Compound 165] | < 500 nM
c1ccc2nc(CCc3nc4c5ncccc5ccn4n3)ccc2c1 [Compound 153] | < 500 nM

Compound | IC50
Cc1ccc2nc(CCc3cn4ccc5ncccc5c4n3)ccc2n1 [Compound 200] | < 500 nM
Cc1ccc(-c2cn(C)c(CCc3ccc4ncccc4n3)n2)cn1 [Compound 174] | 500 to 1000 nM
Cc1cnc(C)n2nc(CCc3ccc4ccccc4n3)nc12 [Compound 126, 2-(2-(5,8-Dimethyl-[1,2,4]triazolo[1,5-c]pyrimidin-2-yl)ethyl)quinoline] | < 500 nM
Cc1ccnc2ccc(CCc3nc4c5cccnc5ccc4n3C)nc12 [Compound 186] | < 500 nM
O=c1[nH]c(CCc2nc(-c3ccc(-c4ccccc4)cc3)c[nH]2)nc2ccccc12 [Compound 63] | > 10000 nM
Cc1ncc(C)n2nc(CCc3ccc4ccc5cccnc5c4n3)nc12 [Compound 133] | < 500 nM
COc1cccc2ccc(CCc3ccc4ccc5cccnc5c4n3)nc12 [Compound 162] | 1000 to 10000 nM
O=c1[nH]c(CCc2nc3ccccc3[nH]2)nc2ccccc12 [Compound 21] | 1000 to 10000 nM
Cc1ncc(C)n2nc(CCc3ccc4ccc5ccccc5c4n3)nc12 [Compound 130] | 500 to 1000 nM
O=c1[nH]c(CCc2ccc(-c3ccccc3)s2)nc2ccccc12 [Compound 37] | > 10000 nM
C(=C\c1nc(-c2ccccc2)c[nH]1)/c1ccccn1 [Compound 32] | > 10000 nM
Cc1ccc2nc(CCc3nc4c(C)ncc(C)n4n3)cnc2c1C [Compound 136] | < 500 nM
O=c1[nH]c2ccccc2nc1CCc1nc(-c2ccccc2)c[nH]1 [Compound 2] | < 500 nM
Cn1c(CCc2cnc3c(C(F)(F)F)ccc(C(F)(F)F)c3n2)nc2c3cccnc3ccc21 [Compound 143] | < 500 nM
Cc1ncc(C)n2nc(CCc3ccc4ccncc4n3)nc12 [Compound 139] | 1000 to 10000 nM
Cn1c(CCc2ccc3cccnc3n2)nc2c3cccnc3ccc21 [Compound 203] | < 500 nM
FC(F)(F)Oc1ccc2[nH]c(CCc3cnc4ccccc4n3)nc2c1 [Compound 105] | 1000 to 10000 nM
FC(F)(F)c1cnc2nc(CCc3nc4c5cccnc5ccn4n3)ccc2c1 [Compound 182] | > 10000 nM
c1ccc2nc(CCc3nc4ccccc4s3)cnc2c1 [Compound 117] | 1000 to 10000 nM
Cc1ncc(C)c2nc(CCc3nc4c(ccc5ncccc54)[nH]3)ccc12 [Compound 166] | < 500 nM
c1ccc(-c2cccc(CCc3cnc4ccccc4n3)n2)cc1 [Compound 81] | > 10000 nM
Cc1ncc(C)n2nc(CCc3ccc4ncccc4n3)nc12 [Compound 140] | < 500 nM
Cc1ncc(CCc2nc(-c3cccnc3)cn2C)nc1C [Compound 175] | 1000 to 10000 nM

Compound | IC50
Cc1ncc(C)n2nc(CCc3ccc4c(F)ccc(F)c4n3)nc12 [Compound 129] | 500 to 1000 nM
Cc1ncc(C)c2nc(CCc3nc4c5cccnc5ccn4n3)ccc12 [Compound 167] | < 500 nM
O=c1[nH]c(/C=C/c2nc3ccccc3[nH]2)nc2ccccc12 [Compound 22] | > 10000 nM
Cc1c(CCc2ccc3cc(C(F)(F)F)cnc3n2)nc2c3cccnc3ccn12 [Compound 185] | 500 to 1000 nM
Cc1ncc(C)c2nc(CCc3nc4c5ncccc5ccc4n3C)ccc12 [Compound 164] | < 500 nM
Cc1cnc(C)c(CCc2nc(-c3ccccc3)cn2C)n1 [Compound 172] | < 500 nM
Cn1cc(-c2cccc(F)c2F)nc1CCc1ccc2ccccc2n1 [Compound 44] | 500 to 1000 nM
c1ccc(-c2c[nH]c(SCc3cnc4ccccc4n3)n2)cc1 [Compound 122] | > 10000 nM
Cc1ncc(C)n2nc(CCc3ccc4ccc5c(c4n3)NCCC5)nc12 [Compound 137] | < 500 nM
Cn1nc(-c2ccccc2)cc1CCc1nc2ccccc2c(=O)[nH]1 [Compound 15] | 1000 to 10000 nM
Cc1ncc(C)n2nc(CCc3ccc4ccc5nccnc5c4n3)nc12 [Compound 141] | < 500 nM
Cc1cc2c(nc(CCc3ccc4ccccc4n3)n2C)c2cccnc12 [Compound 169] | > 10000 nM
O=c1[nH]c(CCn2cnc(-c3ccccc3)c2)nc2ccccc12 [Compound 27] | 1000 to 10000 nM
Cc1c(CCc2ccc3cccnc3n2)nc2c3cccnc3ccn12 [Compound 197] | < 500 nM
c1ccc2nc(CCc3cn4ccccc4n3)cnc2c1 [Compound 119] | 1000 to 10000 nM
Cc1ccc2ccc(CCc3nc4c5cccnc5ccn4c3C)nc2n1 [Compound 198] | 500 to 1000 nM
Cc1ncc(C)n2nc(CCc3ccc4ccc(F)c(F)c4n3)nc12 [Compound 131] | < 500 nM
c1ccc2nc(CCc3nc4c5cccnc5ccn4n3)ccc2c1 [Compound 147] | < 500 nM
Cc1cnc2nc(CCc3nc4c5cccnc5ccn4c3C)ccc2c1 [Compound 184] | < 500 nM
Cc1c(CCc2ccc3ncccc3n2)nc2c3cccnc3ccn12 [Compound 201] | < 500 nM
